Assays:
Format in all cases: cell-based
[1] = tested on: EL4 murine lymphoma cells; test: Cell death by acridine orange and propidium iodide staining / fluorescence microscopy; conditions: for morphological features of dying cells: cells treated with both the PARP inhibitor and etoposide, fluorescence microscopy
Protocol: (§1) EL4 murine lymphoma cells (10^8 cells) were treated with 15 μM etoposide (PCH Pharmachemie BV, Harleem), a compound which is known to induce cell death after 16 h exposure. A separate set of cells was treated for 16 hours with 15 μM etoposide plus 20 mM nicotinamide, a known PARP inhibitor. Cell death (apoptosis and necrosis) was confirmed by acridine orange and propidium iodide staining. The cells were washed 3 times with RPMI 1640 growth medium containing 10% FCS at 37° C. and to 2 ml of the etoposide- and etoposide/nicotinamide treated EL4 cell suspension 2 ml of the imaging medium according to Example 2 were added. The final cell suspension thus contained 30 mM hyperpolarised ^13C1-pyruvate and 37.5 mM lactate.

[2] = tested on: EL4 murine lymphoma cells; test: 13C-MR spectroscopy of hyperpolarised 13C-label flux between pyruvate and lactate in EL4 cells; conditions: cells treated with both the PARP inhibitor and etoposide
Protocol: as §1
^13C-signal intensities from ^13C-pyruvate and ^13C-lactate in etoposide-treated EL4 cell suspensions as described in 3.1 were followed over a time period of 240 seconds from the time of addition of the imaging medium. […]
^13C-signal intensities from ^13C-pyruvate and ^13C-lactate in etoposide-treated and etoposide/nicotinamide treated EL4 cell suspensions as described in 3.1 were followed over a time period of 240 seconds from the time of addition of the imaging medium. […] The data were fit to a two-site exchange model based on the modified Bloch equations, and the rate constants for the forward and reverse exchange ^13C-fluxes were determined. […]

[3] = tested on: EL-4 murine lymphoma cells; test: 31P-NMR measurements on acid-extracts of EL-4 cells induced to undergo cell death
Excerpt: Loss of NAD(H) can be explained by DNA-damage induced activation of the enzyme poly-ADP-ribose polymerase (PARP), which polyadenylates various proteins and uses NAD^+ as a substrate. There was also an increase in the resonances from the glycolytic intermediate, fructose-1,6-bisphosphate (FBP), which can be explained by inhibition of the glycolytic enzyme, glyceraldehyde 3-phosphate dehydrogenase (GAPDH), through loss of its coenzyme NAD(H). Inhibition of PARP activity with a competitive inhibitor (20 mM nicotinamide) or 3-aminobenzamide (10 mM) inhibited the loss of NAD(H) and the increase in FBP concentration observed in apoptotic cells.

[4] = etoposide-treated cells compared to untreated control cells

SMILES: NC(=O)c1cccc(N)c1 [3-aminobenzamide]
- morphological features of dying cells [1]: still exhibiting the common morphological features of dying cells
- ability to transfer the hyperpolarised 13C-label between the pyruvate and lactate pools [2]: maintained
- increase in FBP concentration observed in apoptotic cells ([3]; 3-aminobenzamide 10 mM): inhibited
- loss of NAD(H) observed in apoptotic cells ([3]; 3-aminobenzamide 10 mM): inhibited

SMILES: COc1cc([C@@H]2c3cc4c(cc3[C@@H](O[C@@H]3O[C@@H]5CO[C@@H](C)O[C@H]5[C@H](O)[C@H]3O)[C@H]3COC(=O)[C@H]23)OCO4)cc(OC)c1O [etoposide]
- cell death (apoptosis and necrosis) ([1]; 15 μM etoposide, 16 h exposure): confirmed
- intensity of the resonances from NAD(H) [3, 4]: decrease
- resonances from fructose-1,6-bisphosphate (FBP) [3, 4]: increase

SMILES: NC(=O)c1cccnc1 [nicotinamide]
- morphological features of dying cells [1]: still exhibiting the common morphological features of dying cells
- ability to transfer the hyperpolarised 13C-label between the pyruvate and lactate pools [2]: maintained
- increase in FBP concentration observed in apoptotic cells ([3]; 20 mM nicotinamide): inhibited
- loss of NAD(H) observed in apoptotic cells ([3]; 20 mM nicotinamide): inhibited

Source: patent publication US20100178249A1, “IMAGING MEDIUM COMPRISING LACTATE AND HYPERPOLARISED 13C-PYRUVATE” (priority 2006, published 2010)
